The NIST ThermoML archive (doi:10.1021/je4000372)
± gives the expanded uncertainty stated by the source.

Columns and labels:
[1] = 101 kPa, Liquid; for viscosity: Capillary tube (Ostwald / Ubbelohde) method; for mass density: Pycnometric method
[2] = xn = mol fraction of the nth substance listed; settings: 101 kPa, Liquid; for viscosity: Capillary tube (Ostwald / Ubbelohde) method; for mass density: Pycnometric method

Row | Compound | viscosity ([1]; 293.15 K) [mPa·s] | mass density ([1]; 293.15 K) [kg/m3] | viscosity ([1]; 303.15 K) [mPa·s] | mass density ([1]; 303.15 K) [kg/m3] | viscosity ([1]; 313.15 K) [mPa·s] | mass density ([1]; 313.15 K) [kg/m3] | viscosity ([1]; 323.15 K) [mPa·s] | mass density ([1]; 323.15 K) [kg/m3] | viscosity ([1]; 333.15 K) [mPa·s] | mass density ([1]; 333.15 K) [kg/m3] | further results
1 | NCCO [2-aminoethan-1-ol] | 24.14 ± 0.76 | 1016.1 ± 2.1 | 14.88 ± 0.48 | 1008.4 ± 2.1 | 9.93 ± 0.32 | 1000.1 ± 2.1 | 6.89 ± 0.22 | 991.9 ± 2.1 | 4.97 ± 0.16 | 983.6 ± 2.1 | –
2 | NCCO [2-aminoethan-1-ol] + CCCCOCCOCCO | – | – | – | – | – | – | – | – | – | – | viscosity ([2]; 293.15 K, x2 = 0): 24.14 ± 0.76 mPa·s; mass density ([2]; 293.15 K, x2 = 0): 1016.1 ± 2.1 kg/m3; viscosity ([2]; 303.15 K, x2 = 0): 14.88 ± 0.48 mPa·s; mass density ([2]; 303.15 K, x2 = 0): 1008.4 ± 2.1 kg/m3; viscosity ([2]; 313.15 K, x2 = 0): 9.93 ± 0.32 mPa·s; mass density ([2]; 313.15 K, x2 = 0): 1000.1 ± 2.1 kg/m3; viscosity ([2]; 323.15 K, x2 = 0): 6.89 ± 0.22 mPa·s; mass density ([2]; 323.15 K, x2 = 0): 991.9 ± 2.1 kg/m3; viscosity ([2]; 333.15 K, x2 = 0): 4.97 ± 0.16 mPa·s; mass density ([2]; 333.15 K, x2 = 0): 983.6 ± 2.1 kg/m3
3 | CCCCOCCOCCO [3,6-dioxa-1-decanol] | 5.84 ± 0.18 | 952.9 ± 2.1 | 4.23 ± 0.13 | 943.5 ± 2 | 3.22 ± 0.1 | 935.7 ± 2 | 2.51 ± 0.08 | 926.6 ± 2 | 2 ± 0.06 | 918.5 ± 2 | –
4 | CCCCOCCOCCO [3,6-dioxa-1-decanol] + OCCN(CCO)CCO | – | – | – | – | – | – | – | – | – | – | viscosity ([2]; 293.15 K, x1 = 1): 5.84 ± 0.18 mPa·s; mass density ([2]; 293.15 K, x1 = 1): 952.9 ± 2.1 kg/m3; viscosity ([2]; 303.15 K, x1 = 1): 4.23 ± 0.13 mPa·s; mass density ([2]; 303.15 K, x1 = 1): 943.5 ± 2 kg/m3; viscosity ([2]; 313.15 K, x1 = 1): 3.22 ± 0.1 mPa·s; mass density ([2]; 313.15 K, x1 = 1): 935.7 ± 2 kg/m3; viscosity ([2]; 323.15 K, x1 = 1): 2.51 ± 0.08 mPa·s; mass density ([2]; 323.15 K, x1 = 1): 926.6 ± 2 kg/m3; viscosity ([2]; 333.15 K, x1 = 1): 2 ± 0.06 mPa·s; mass density ([2]; 333.15 K, x1 = 1): 918.5 ± 2 kg/m3
5 | OCCNCCO [diethanolamine] | 890.9 ± 49 | 1096.1 ± 2.3 | 382.2 ± 18 | 1089.8 ± 2.2 | 187.6 ± 7.4 | 1083.7 ± 2.2 | 99.11 ± 3.4 | 1077.4 ± 2.2 | 58.12 ± 1.9 | 1070.7 ± 2.2 | –
6 | OCCNCCO [diethanolamine] + CCCCOCCOCCO | – | – | – | – | – | – | – | – | – | – | viscosity ([2]; 293.15 K, x2 = 0): 890.9 ± 49 mPa·s; mass density ([2]; 293.15 K, x2 = 0): 1096.1 ± 2.3 kg/m3; viscosity ([2]; 303.15 K, x2 = 0): 382.2 ± 18 mPa·s; mass density ([2]; 303.15 K, x2 = 0): 1089.8 ± 2.2 kg/m3; viscosity ([2]; 313.15 K, x2 = 0): 187.6 ± 7.4 mPa·s; mass density ([2]; 313.15 K, x2 = 0): 1083.7 ± 2.2 kg/m3; viscosity ([2]; 323.15 K, x2 = 0): 99.11 ± 3.4 mPa·s; mass density ([2]; 323.15 K, x2 = 0): 1077.4 ± 2.2 kg/m3; viscosity ([2]; 333.15 K, x2 = 0): 58.12 ± 1.9 mPa·s; mass density ([2]; 333.15 K, x2 = 0): 1070.7 ± 2.2 kg/m3
7 | OCCN(CCO)CCO [triethanolamine] | 917.6 ± 51 | 1124.3 ± 2.3 | 404.7 ± 19 | 1118.5 ± 2.3 | 203.9 ± 8.2 | 1112.8 ± 2.3 | 108.3 ± 3.8 | 1107.1 ± 2.3 | 64.2 ± 2.2 | 1101.5 ± 2.3 | –
